Measured values published in patent US9376418B2, “Substituted pyridine spleen tyrosine kinase (SYK) inhibitors” (Merck Sharp & Dohme Corp., priority 2012, dated 2016).

biological target: T1, recombinant human GST-SYK (Homo sapiens, UniProt P43405); experiment: Homogeneous Time-Resolved Fluorescence (HTRF) assay for the recombinant human Syk enzyme; type: biochemical; conditions: HTRF assay, recombinant human GST-SYK; IC50 given as class symbols; read-out: rhSYK Activity
T1 construct: purchased Carna Biosciences 08-176
How it was run: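 HTRF read-out: Europium-anti-phosphotyrosine antibody (2 nM) plus SA-APC (70 nM) in EDTA-containing buffer quenched the reaction, and signal was read after 30 minutes. Kinase step used […], 250 nM biotinylated peptide, 25 μM ATP, 5 mM Mg, 45′ at room temperature.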

SMILES | IC50
CCN(C)C(=O)c1ccc(-c2cc(C)cc(Nc3nccc(C(F)(F)F)n3)c2)cn1 [Example 16.59, N-ethyl-N-methyl-5-(3-methyl-5-{[4-(trifluoromethyl)pyrimidin-2-yl]amino}phenyl)pyridine-2-carboxamide] | < 100 nM
Cc1cc(Nc2nccc(C(F)(F)F)n2)cc(-c2ccc(C(=O)N(CCO)CCO)nc2)c1 [Example 16.60, N,N-bis(2-hydroxyethyl)-5-(3-methyl-5-{[4-(trifluoromethyl)pyrimidin-2-yl]amino}phenyl)pyridine-2-carboxamide] | < 100 nM
CNC(=O)CN(C)C(=O)c1ccc(-c2cc(C)cc(Nc3nccc(C(F)(F)F)n3)c2)cn1 [Example 16.61, N-methyl-N-[2-(methylamino)-2-oxoethyl]-5-(3-methyl-5-{[4-(trifluoromethyl)pyrimidin-2-yl]amino}phenyl)pyridine-2-carboxamide] | < 100 nM
Cc1cc(Nc2nccc(C(F)(F)F)n2)cc(-c2ccc(C(=O)N(C)CC(N)=O)nc2)c1 [Example 16.62, N-(2-amino-2-oxoethyl)-N-methyl-5-(3-methyl-5-{[4-(trifluoromethyl)pyrimidin-2-yl]amino}phenyl)pyridine-2-carboxamide] | < 100 nM
CNC(=O)CNC(=O)c1ccc(-c2cc(C)cc(Nc3nccc(C(F)(F)F)n3)c2)cn1 [Example 16.63, N-[2-(methylamino)-2-oxoethyl]-5-(3-methyl-5-{[4-(trifluoromethyl)pyrimidin-2-yl]amino}phenyl)pyridine-2-carboxamide] | 100 to 1000 nM
Cc1cc(Nc2nccc(C(F)(F)F)n2)cc(-c2ccc(C(=O)NCCS(C)(=O)=O)nc2)c1 [Example 16.64, N-[2-(methylsulfonyl)ethyl]-5-(3-methyl-5-{[4-(trifluoromethyl)pyrimidin-2-yl]amino}phenyl)pyridine-2-carboxamide] | 100 to 1000 nM
Cc1cc(Nc2nccc(C(F)(F)F)n2)cc(-c2ccc(C(=O)N3CCN(CC(F)(F)F)CC3)nc2)c1 [Example 16.65, N-[3-methyl-5-(6-{[4-(2,2,2-trifluoroethyl)piperazin-1-yl]carbonyl}pyridin-3-yl)phenyl]-4-(trifluoromethyl)pyrimidin-2-amine] | 100 to 1000 nM
Cc1cc(Nc2nccc(C(F)(F)F)n2)cc(-c2ccc(CN3CCNC3=O)nc2)c1 [Example 17.1, 1-{[5-(3-Methyl-5-{[4-(trifluoromethyl)pyrimidin-2-yl]amino}phenyl)pyridin-2-yl]methyl}imidazolidin-2-one] | < 100 nM
Cc1cc(Nc2nccc(C(F)(F)F)n2)cc(-c2ccc(CNC(N)=O)nc2)c1 [Example 17.2, 1-{[5-(3-methyl-5-{[4-(trifluoromethyl)pyrimidin-2-yl]amino}phenyl)pyridin-2-yl]methyl}urea] | < 100 nM
CNC(=O)NCc1ccc(-c2cc(C)cc(Nc3nccc(C(F)(F)F)n3)c2)cn1 [Example 17.3, 1-methyl-3-{[5-(3-methyl-5-{[4-(trifluoromethyl)pyrimidin-2-yl]amino}phenyl)pyridin-2-yl]methyl}urea] | < 100 nM
CCC(C)(C#N)Nc1ccc(-c2cc(C)cc(Nc3nccc(C(F)(F)F)n3)c2)cn1 (centres unmarked) [Example 18.1, 2-Methyl-2-{[5-(3-methyl-5-{[4-(trifluoromethyl)pyrimidin-2-yl]amino}phenyl)pyridin-2-yl]amino}butanenitrile] | < 100 nM
Cc1cc(Nc2nccc(C(F)(F)F)n2)cc(-c2ccc(NC(C)(C#N)C(C)(C)C)nc2)c1 (centres unmarked) [Example 18.3, 2,3,3-trimethyl-2-{[5-(3-methyl-5-{[4-(trifluoromethyl)pyrimidin-2-yl]amino}phenyl)pyridin-2-yl]amino}butanenitrile] | 100 to 1000 nM
CCC(C)(C#N)Nc1ccc(-c2cc(C)cc(Nc3nccc(C(F)(F)F)n3)c2)cn1 (centres unmarked) [Example 18.4, 2-methyl-2-{[5-(3-methyl-5-{[4-(trifluoromethyl)pyrimidin-2-yl]amino}phenyl)pyridin-2-yl]amino}butanenitrile] | 100 to 1000 nM
Cc1cc(Nc2nccc(C(F)(F)F)n2)cc(-c2ccc(NC(C)(CC(F)(F)F)C(=O)O)nc2)c1 (centres unmarked) [Example 18.5, 4,4,4-Trifluoro-N-[5-(3-methyl-5-{[4-(trifluoromethyl)pyrimidin-2-yl]amino}phenyl)pyridin-2-yl]isovaline] | < 100 nM
CCC(C)(Nc1ccc(-c2cc(C)cc(Nc3nccc(C(F)(F)F)n3)c2)cn1)C(=O)O (centres unmarked) [Example 18.6] | < 100 nM
Cc1cc(Nc2nccc(C(F)(F)F)n2)cc(-c2ccc(NC(C)(CC(F)(F)F)c3nnn[nH]3)nc2)c1 (centres unmarked) [Example 18.7, N-[3-methyl-5-(6-{[4,4,4-trifluoro-2-(1H-tetrazol-5-yl)butan-2-yl]amino}pyridin-3-yl)phenyl]-4-(trifluoromethyl)pyrimidin-2-amine] | < 100 nM
Cc1cc(Nc2nccc(C(F)(F)F)n2)cc(-c2ccc(NC(C)(C)c3nnn[nH]3)nc2)c1 [Example 18.8, N-[3-methyl-5-(6-{[1-methyl-1-(1H-tetrazol-5-yl)ethyl]amino}pyridin-3-yl)phenyl]-4-(trifluoromethyl)pyrimidin-2-amine] | < 100 nM
Cc1cc(Nc2nccc(C(F)(F)F)n2)cc(-c2ccc(NC(C)(c3nnn[nH]3)C(C)(C)C)nc2)c1 (centres unmarked) [Example 18.9, N-[3-methyl-5-(6-{[1,2,2-trimethyl-1-(1H-tetrazol-5-yl)propyl]amino}pyridin-3-yl)phenyl]-4-(trifluoromethyl)pyrimidin-2-amine] | < 100 nM
Cc1cc(Nc2nccc(C(F)(F)F)n2)cc(-c2ccc(NC(C)(C)c3nc(=O)o[nH]3)nc2)c1 [Example 18.10, 3-(2-{[5-(3-Methyl-5-{[4-(trifluoromethyl)pyrimidin-2-yl]amino}phenyl)pyridin-2-yl]amino}propan-2-yl)-1,2,4-oxadiazol-5(4H)-one] | < 100 nM
Cc1cc(Nc2nccc(C(F)(F)F)n2)cc(-c2ccc(-c3noc(=O)[nH]3)nc2)c1 [Example 18.11] | < 100 nM

Further lines, results first:

IC50 | SMILES
< 100 nM | Cc1cc(Nc2nccc(C(F)(F)F)n2)cc(-c2ccc(C(NC(N)=O)(C3CC3)C3CC3)nc2)c1 [Example 19.1, 1-{Dicyclopropyl[5-(3-methyl-5-{[4-(trifluoromethyl)pyrimidin-2-yl]amino}phenyl)pyridin-2-yl]methyl}urea]
< 100 nM | Cc1cc(Nc2nccc(C(C)(F)F)n2)cc(-c2cccnc2)c1 [Example 20.1, 4-(1,1-Difluoroethyl)-N-[3-methyl-5-(pyridin-3-yl)phenyl]pyrimidin-2-amine]
< 100 nM | Cc1cc(Nc2nccc(OC3CCNCC3)n2)cc(-c2cccnc2)c1 [Example 20.2, N-[3-methyl-5-(pyridin-3-yl)phenyl]-4-(piperidin-4-yloxy)pyrimidin-2-amine]
100 to 1000 nM | Cc1cc(Nc2ncc(Cl)c(C(F)(F)F)n2)cc(-c2cccnc2)c1 [Example 20.3]
< 100 nM | Cc1cc(Nc2nccc(C(F)(F)F)n2)cc(-c2ccc(S(=O)(=O)NCC(=O)O)nc2)c1 [Example 21.1, N-{[5-(3-methyl-5-{[4-(trifluoromethyl)pyrimidin-2-yl]amino}phenyl)pyridin-2-yl]sulfonyl}glycine]
100 to 1000 nM | Cc1cc(Nc2nccc(C(F)(F)F)n2)cc(-c2ccc(S(=O)(=O)NC3CC3)nc2)c1 [Example 21.2, N-cyclopropyl-5-(3-methyl-5-{[4-(trifluoromethyl)pyrimidin-2-yl]amino}phenyl)pyridine-2-sulfonamide]
< 100 nM | Cc1cc(Nc2nccc(C(F)(F)F)n2)cc(-c2ccc(S(=O)(=O)NC3CCNC3=O)nc2)c1 (centres unmarked) [Example 21.3, 5-(3-methyl-5-{[4-(trifluoromethyl)pyrimidin-2-yl]amino}phenyl)-N-(2-oxopyrrolidin-3-yl)pyridine-2-sulfonamide]
< 100 nM | Cc1cc(Nc2nccc(C(F)(F)F)n2)cc(-c2ccc(S(N)(=O)=O)nc2)c1 [Example 21.4, 5-(3-methyl-5-{[4-(trifluoromethyl)pyrimidin-2-yl]amino}phenyl)pyridine-2-sulfonamide]
100 to 1000 nM | CCOC(=O)/C=C/c1ccc(-c2cc(C)cc(Nc3nccc(C(F)(F)F)n3)c2)cn1 [Example 22.1, Ethyl-3-[5-(3-methyl-5-{[4-(trifluoromethyl)pyrimidin-2-yl]amino}phenyl)pyridin-2-yl]prop-2-enoate]
< 100 nM | Cc1cc(Nc2nccc(C(F)(F)F)n2)cc(-c2ccc(/C=C/C(=O)O)nc2)c1 [Example 22.2, 3-[5-(3-Methyl-5-{[4-(trifluoromethyl)pyrimidin-2-yl]amino}phenyl)pyridin-2-yl]prop-2-enoic acid]
< 100 nM | Cc1cc(Nc2nccc(C(F)(F)F)n2)cc(-c2ccc(CC(C)(C)C(=O)O)nc2)c1 [Example 22.3, 2,2-Dimethyl-3-[5-(3-methyl-5-{[4-(trifluoromethyl)pyrimidin-2-yl]amino}phenyl)pyridin-2-yl]propanic acid]
< 100 nM | Cc1cc(Nc2nccc(C(F)(F)F)n2)cc(-c2ccc(C(O)C(C)(C)C(=O)O)nc2)c1 (centres unmarked) [Example 23.1, 3-Hydroxy-2,2-dimethyl-3-[5-(3-methyl-5-{[4-(trifluoromethyl)pyrimidin-2-yl]amino}phenyl)pyridin-2-yl]propanoic acid]
< 100 nM | CCOC(=O)C(F)(F)C(O)c1ccc(-c2cc(C)cc(Nc3nccc(C(F)(F)F)n3)c2)cn1 (centres unmarked) [Example 24.1, Ethyl 2,2-difluoro-3-hydroxy-3-[5-(3-methyl-5-{[4-(trifluoromethyl)pyrimidin-2-yl]amino}phenyl)pyridin-2-yl]propanoate]
< 100 nM | Cc1cc(Nc2nccc(C(F)(F)F)n2)cc(-c2ccc(C(O)C(F)(F)C(=O)O)nc2)c1 (centres unmarked) [Example 24.2, 2,2-Difluoro-3-hydroxy-3-[5-(3-methyl-5-{[4-(trifluoromethyl)pyrimidin-2-yl]amino}phenyl)pyridin-2-yl]propanoic acid]
< 100 nM | Cc1cc(Nc2nccc(C(F)(F)F)n2)cc(-c2ccc(CC(F)(F)C(=O)O)nc2)c1 [Example 24.3, 2,2-Difluoro-3-[5-(3-methyl-5-{[4-(trifluoromethyl)pyrimidin-2-yl]amino}phenyl)pyridin-2-yl]propanoic acid]
